Test results taken from ChEMBL document CHEMBL1782000, “Thiazole-based chalcones as potent antimicrobial agents. Synthesis and biological evaluation” (2011).
In brackets after ≈: the same amount, converted by molar mass.

Columns and labels:
Staphylococcus aureus [1] = test: Antibacterial activity against Staphylococcus aureus ATCC 6538 after 24 hrs by microdilution method; assay type: functional; conditions: ATCC 6538, 24 h
Bacillus cereus [2] = test: Antibacterial activity against Bacillus cereus clinical isolate after 24 hrs by microdilution method; assay type: functional
Micrococcus flavus [3] = test: Antibacterial activity against Micrococcus flavus ATCC 10240 after 24 hrs by microdilution method; assay type: functional; conditions: ATCC 10240, 24 h
Listeria monocytogenes [4] = test: Antibacterial activity against Listeria monocytogenes NCTC 7973 after 24 hrs by microdilution method; assay type: functional; conditions: NCTC 7973, 24 h
Pseudomonas aeruginosa [5] = test: Antibacterial activity against Pseudomonas aeruginosa ATCC 27853 after 24 hrs by microdilution method; assay type: functional; conditions: ATCC 27853, 24 h
Salmonella typhimurium [6] = test: Antibacterial activity against Salmonella Typhimurium ATCC 13311 after 24 hrs by microdilution method; assay type: functional, Salmonella enterica subsp. enterica serovar Typhimurium; conditions: Salmonella enterica, ATCC 13311, 24 h
Escherichia coli [7] = test: Antibacterial activity against Escherichia coli ATCC 35210 after 24 hrs by microdilution method; assay type: functional; conditions: ATCC 35210, 24 h
Enterococcus faecalis [8] = test: Antibacterial activity against Enterococcus faecalis isolate obtained from human after 24 hrs by microdilution method; assay type: functional
Staphylococcus aureus [9] = test: Bactericidal activity against Staphylococcus aureus ATCC 6538 after 24 hrs; assay type: functional; conditions: ATCC 6538, 24 h
Bacillus cereus [10] = test: Bactericidal activity against Bacillus cereus clinical isolate after 24 hrs; assay type: functional
Micrococcus flavus [11] = test: Bactericidal activity against Micrococcus flavus ATCC 10240 after 24 hrs; assay type: functional; conditions: ATCC 10240, 24 h
Listeria monocytogenes [12] = test: Bactericidal activity against Listeria monocytogenes NCTC 7973 after 24 hrs; assay type: functional; conditions: NCTC 7973, 24 h
Pseudomonas aeruginosa [13] = test: Bactericidal activity against Pseudomonas aeruginosa ATCC 27853 after 24 hrs; assay type: functional; conditions: ATCC 27853, 24 h
Salmonella typhimurium [14] = test: Bactericidal activity against Salmonella Typhimurium ATCC 13311 after 24 hrs; assay type: functional, Salmonella enterica subsp. enterica serovar Typhimurium; conditions: Salmonella enterica, ATCC 13311, 24 h
Escherichia coli [15] = test: Bactericidal activity against Escherichia coli ATCC 35210 after 24 hrs; assay type: functional; conditions: ATCC 35210, 24 h
Enterococcus faecalis [16] = test: Bactericidal activity against Enterococcus faecalis isolate obtained from human after 24 hrs; assay type: functional
Aspergillus ochraceus [17] = test: Antifungal activity against Aspergillus ochraceus ATCC 12066 after 72 hrs by serial dilution method; assay type: functional; conditions: ATCC 12066, 72 h
Aspergillus versicolor [18] = test: Antifungal activity against Aspergillus versicolor ATCC 11730 after 72 hrs by serial dilution method; assay type: functional; conditions: ATCC 11730, 72 h
Aspergillus niger [19] = test: Antifungal activity against Aspergillus niger ATCC 6275 after 72 hrs by serial dilution method; assay type: functional; conditions: ATCC 6275, 72 h
Aspergillus fumigatus [20] = test: Antifungal activity against Aspergillus fumigatus plant isolate after 72 hrs by serial dilution method; assay type: functional
Trichoderma viride [21] = test: Antifungal activity against Trichoderma viride IAM 5061 after 72 hrs by serial dilution method; assay type: functional; conditions: IAM 5061, 72 h
Penicillium ochrochloron [22] = test: Antifungal activity against Penicillium ochrochloron ATCC 9112 after 72 hrs by serial dilution method; assay type: functional; conditions: ATCC 9112, 72 h
Talaromyces funiculosus [23] = test: Antifungal activity against Penicillium funiculosum ATCC 36839 after 72 hrs by serial dilution method; assay type: functional; conditions: ATCC 36839, 72 h
[24] = Antifungal activity against Fusarium sporotrichioides IMT 496 after 72 hrs by serial dilution method; assay type: functional
Aspergillus ochraceus [25] = test: Fungicidal activity against Aspergillus ochraceus ATCC 12066 after 72 hrs; assay type: functional; conditions: ATCC 12066, 72 h
Aspergillus versicolor [26] = test: Fungicidal activity against Aspergillus versicolor ATCC 11730 after 72 hrs; assay type: functional; conditions: ATCC 11730, 72 h
Aspergillus niger [27] = test: Fungicidal activity against Aspergillus niger ATCC 6275 after 72 hrs; assay type: functional; conditions: ATCC 6275, 72 h
Aspergillus fumigatus [28] = test: Fungicidal activity against Aspergillus fumigatus plant isolate after 72 hrs; assay type: functional
Trichoderma viride [29] = test: Fungicidal activity against Trichoderma viride IAM 5061 after 72 hrs; assay type: functional; conditions: IAM 5061, 72 h
Penicillium ochrochloron [30] = test: Fungicidal activity against Penicillium ochrochloron ATCC 9112 after 72 hrs; assay type: functional; conditions: ATCC 9112, 72 h
Talaromyces funiculosus [31] = test: Fungicidal activity against Penicillium funiculosum ATCC 36839 after 72 hrs; assay type: functional; conditions: ATCC 36839, 72 h
[32] = test system: Fusarium sporotrichioides; test: Fungicidal activity against Fusarium sporotrichioides IMT 496 after 72 hrs; assay type: functional; conditions: IMT 496, 72 h

Compound	MIC (Staphylococcus aureus [1]) [µM]	MIC (Bacillus cereus [2]) [µM]	MIC (Micrococcus flavus [3]) [µM]	MIC (Listeria monocytogenes [4]) [µM]	MIC (Aspergillus ochraceus [17]) [µM]	MIC (Aspergillus versicolor [18]) [µM]	MIC (Aspergillus niger [19]) [µM]	MIC (Aspergillus fumigatus [20]) [µM]	MIC (Trichoderma viride [21]) [µM]	MIC (Penicillium ochrochloron [22]) [µM]	MIC (Talaromyces funiculosus [23]) [µM]	MIC (10'-2 umol/ml) [24]	MFC (Aspergillus ochraceus [25]) [µM]	MFC (Aspergillus versicolor [26]) [µM]	MFC (Aspergillus niger [27]) [µM]	MFC (Aspergillus fumigatus [28]) [µM]	MFC (Trichoderma viride [29]) [µM]	MFC (Penicillium ochrochloron [30]) [µM]	MFC (Talaromyces funiculosus [31]) [µM]	MFC [32] [µM]	further results
CNc1nc(C)c(C(=O)/C=C/c2ccc([N+](=O)[O-])cc2)s1	330 (≈ 100 µg/mL)	330 (≈ 100 µg/mL)	330 (≈ 100 µg/mL)	330 (≈ 100 µg/mL)	250 (≈ 75.8 µg/mL)	330 (≈ 100 µg/mL)	330 (≈ 100 µg/mL)	330 (≈ 100 µg/mL)	165 (≈ 50.1 µg/mL)	330 (≈ 100 µg/mL)	330 (≈ 100 µg/mL)	16.5	330 (≈ 100 µg/mL)	496 (≈ 150 µg/mL)	825 (≈ 250 µg/mL)	496 (≈ 150 µg/mL)	330 (≈ 100 µg/mL)	496 (≈ 150 µg/mL)	496 (≈ 150 µg/mL)	660 (≈ 200 µg/mL)	MIC (Pseudomonas aeruginosa [5]): 330 µM (≈ 100 µg/mL); MIC (Salmonella typhimurium [6]): 248 µM (≈ 75.1 µg/mL); MIC (Escherichia coli [7]): 248 µM (≈ 75.1 µg/mL); MIC (Enterococcus faecalis [8]): 165 µM (≈ 50.1 µg/mL); MBC (Staphylococcus aureus [9]): 495 µM (≈ 150 µg/mL); MBC (Bacillus cereus [10]): 495 µM (≈ 150 µg/mL); MBC (Micrococcus flavus [11]): 495 µM (≈ 150 µg/mL); MBC (Listeria monocytogenes [12]): 495 µM (≈ 150 µg/mL); MBC (Pseudomonas aeruginosa [13]): 495 µM (≈ 150 µg/mL); MBC (Salmonella typhimurium [14]): 330 µM (≈ 100 µg/mL); MBC (Escherichia coli [15]): 330 µM (≈ 100 µg/mL); MBC (Enterococcus faecalis [16]): 330 µM (≈ 100 µg/mL)
c1ccc(-c2ccc(C(c3ccccc3)n3ccnc3)cc2)cc1 (stereo not given) [BIFONAZOLE]					403 (≈ 125 µg/mL)	25.1 (≈ 7.79 µg/mL)	50.3 (≈ 15.6 µg/mL)	3.2 (≈ 0.993 µg/mL)	806 (≈ 250 µg/mL)	403 (≈ 125 µg/mL)	1610 (≈ 500 µg/mL)	8.06	806 (≈ 250 µg/mL)	1610 (≈ 500 µg/mL)	201 (≈ 62.5 µg/mL)	61.2 (≈ 19 µg/mL)	1610 (≈ 500 µg/mL)	1610 (≈ 500 µg/mL)	2420 (≈ 750 µg/mL)	806 (≈ 250 µg/mL)	
CNc1nc(C)c(C(=O)/C=C/c2cccc([N+](=O)[O-])c2)s1	330 (≈ 100 µg/mL)	330 (≈ 100 µg/mL)	330 (≈ 100 µg/mL)	330 (≈ 100 µg/mL)	330 (≈ 100 µg/mL)	330 (≈ 100 µg/mL)	330 (≈ 100 µg/mL)	330 (≈ 100 µg/mL)	165 (≈ 50.1 µg/mL)	330 (≈ 100 µg/mL)	330 (≈ 100 µg/mL)	33	496 (≈ 150 µg/mL)	496 (≈ 150 µg/mL)	660 (≈ 200 µg/mL)	496 (≈ 150 µg/mL)	330 (≈ 100 µg/mL)	496 (≈ 150 µg/mL)	496 (≈ 150 µg/mL)	660 (≈ 200 µg/mL)	MIC (Pseudomonas aeruginosa [5]): 280 µM (≈ 85.1 µg/mL); MIC (Salmonella typhimurium [6]): 280 µM (≈ 85.1 µg/mL); MIC (Escherichia coli [7]): 248 µM (≈ 75.1 µg/mL); MIC (Enterococcus faecalis [8]): 330 µM (≈ 100 µg/mL); MBC (Staphylococcus aureus [9]): 495 µM (≈ 150 µg/mL); MBC (Bacillus cereus [10]): 330 µM (≈ 100 µg/mL); MBC (Micrococcus flavus [11]): 495 µM (≈ 150 µg/mL); MBC (Listeria monocytogenes [12]): 495 µM (≈ 150 µg/mL); MBC (Pseudomonas aeruginosa [13]): 330 µM (≈ 100 µg/mL); MBC (Salmonella typhimurium [14]): 330 µM (≈ 100 µg/mL); MBC (Escherichia coli [15]): 330 µM (≈ 100 µg/mL); MBC (Enterococcus faecalis [16]): 330 µM (≈ 100 µg/mL)
